Results from BindingDB's records for doi:10.1016/j.bmc.2017.07.045 (Punjabi University, 2017).
pIC50: −log10 of the molar value.

assay: Inhibition of P2Y12 in human platelet rich plasma assessed as reduction in ADP-induced platelet aggregation pre-incubated before ADP addition and measured after 10 mins by Bruker spectrophotometry

Row | Compound | pIC50
1 | CCCn1nc2cccc([N+](=O)[O-])c2n1 | 2.88
2 | O=[N+]([O-])c1cccc2c1nnn2Cc1ccccc1 | 3.09
3 | Cn1nnc2c([N+](=O)[O-])cccc21 | 2.74
4 | Cn1nc2cccc([N+](=O)[O-])c2n1 | 2.71
5 | Cn1nnc2cccc([N+](=O)[O-])c21 | 2.74
6 | CCn1nc2cccc([N+](=O)[O-])c2n1 | 2.79
7 | CCCn1nnc2c([N+](=O)[O-])cccc21 | 2.89
8 | CCCCn1nnc2c([N+](=O)[O-])cccc21 | 2.98
9 | CCCCCn1nnc2c([N+](=O)[O-])cccc21 | 2.97
10 | CCCCCn1nc2cccc([N+](=O)[O-])c2n1 | 2.99
11 | CCCCCCn1nnc2c([N+](=O)[O-])cccc21 | 2.98
12 | CCCCCCCn1nnc2c([N+](=O)[O-])cccc21 | 3.02
13 | CCCCCCCn1nc2cccc([N+](=O)[O-])c2n1 | 3.03
14 | CCCCCCCCn1nnc2c([N+](=O)[O-])cccc21 | 3.03
15 | O=[N+]([O-])c1cccc2c1nnn2CCCCl | 3.04
16 | O=[N+]([O-])c1cccc2nn(CCCCl)nc12 | 2.90
17 | O=[N+]([O-])c1cccc2nn(Cc3ccccc3)nc12 | 3.09
18 | Cc1ccc(S(=O)(=O)n2nnc3c([N+](=O)[O-])cccc32)cc1 | 3.07
19 | CCn1nnc2c([N+](=O)[O-])cccc21 | 2.82
20 | CCCCn1nc2cccc([N+](=O)[O-])c2n1 | 2.97
21 | CCCCCCn1nc2cccc([N+](=O)[O-])c2n1 | 3.03
22 | CCCCCCCCn1nc2cccc([N+](=O)[O-])c2n1 | 3.04
23 | O=C(c1ccccc1)n1nnc2c([N+](=O)[O-])cccc21 | 3.19
24 | CCCSc1nc(N[C@@H]2C[C@H]2c2ccc(F)c(F)c2)c2nnn([C@@H]3C[C@H](OCCO)[C@@H](O)[C@H]3O)c2n1 [AR-C126532XX] | 6.49
25 | c1ccc2[nH]nnc2c1 [CHEBI:75331] | 2.13
